Test results: patent US10160755B2 (Plexxikon Inc., priority 2015, dated 2018)

Target: T1, BA/F3-FLT3-ITD + F691L cells (Homo sapiens, UniProt P36888, F691L, cells depend on it, form not given)
T1 sequence (P36888 1-993 F691L): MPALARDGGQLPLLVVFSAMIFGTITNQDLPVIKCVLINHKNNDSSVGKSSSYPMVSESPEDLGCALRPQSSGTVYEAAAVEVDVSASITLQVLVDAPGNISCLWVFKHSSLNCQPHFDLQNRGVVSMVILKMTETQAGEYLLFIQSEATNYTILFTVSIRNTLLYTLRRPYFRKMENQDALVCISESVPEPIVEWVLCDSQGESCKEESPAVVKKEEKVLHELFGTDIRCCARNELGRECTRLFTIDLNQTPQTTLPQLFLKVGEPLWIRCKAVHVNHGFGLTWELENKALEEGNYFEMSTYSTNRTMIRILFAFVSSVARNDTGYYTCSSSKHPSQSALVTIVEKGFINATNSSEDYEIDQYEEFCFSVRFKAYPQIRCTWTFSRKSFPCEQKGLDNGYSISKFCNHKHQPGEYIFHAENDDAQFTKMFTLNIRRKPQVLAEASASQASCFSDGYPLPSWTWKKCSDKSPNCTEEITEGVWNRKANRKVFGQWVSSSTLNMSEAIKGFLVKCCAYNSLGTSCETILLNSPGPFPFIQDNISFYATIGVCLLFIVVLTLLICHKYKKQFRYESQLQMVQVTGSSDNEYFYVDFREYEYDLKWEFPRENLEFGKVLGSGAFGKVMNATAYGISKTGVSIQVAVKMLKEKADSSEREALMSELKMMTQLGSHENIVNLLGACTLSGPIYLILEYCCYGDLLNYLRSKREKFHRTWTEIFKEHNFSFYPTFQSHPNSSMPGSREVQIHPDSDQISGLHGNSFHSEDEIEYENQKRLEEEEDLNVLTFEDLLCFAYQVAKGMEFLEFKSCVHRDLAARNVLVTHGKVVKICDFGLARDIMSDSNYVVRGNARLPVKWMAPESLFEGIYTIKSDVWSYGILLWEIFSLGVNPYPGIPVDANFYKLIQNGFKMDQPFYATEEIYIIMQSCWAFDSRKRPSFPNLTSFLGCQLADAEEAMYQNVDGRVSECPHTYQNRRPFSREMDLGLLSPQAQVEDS
Assay: BA/F3-FLT3-ITD + F691L cell proliferation assay (CellTiter-Glo)
Format: cell-based, murine
Conditions: BaF3 FLT3 ITD/F691L cells; read-out: Cell Activity (IC50 μM) BaF3_FLT3_ITD/F691L
Method in brief: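 Murine BA/F3 cells transfected with full-length FLT3 carrying ITD plus D835Y or F691L, grown without IL-3 so growth depends on FLT3. Seeded at 1×10^4 cells/well and dosed with 8 points, 10 to 0.0046 μM, 0.2% DMSO, for three days at 37 °C. IC50 from CellTiter-Glo luminescence (ATP content).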

GI50, 0.0001 to 1 µM:
CC(C)(C)n1cnc2ccc(-c3c[nH]c4ncc(-c5ccc(N6CCC(F)(F)CC6)nc5)nc34)cc21 [P-356, 7-(3-tert-butylbenzimidazol-5-yl)-2-[6-(4,4-difluoro-1-piperidyl)-3-pyridyl]-5H-pyrrolo[2,3-b]pyrazine]
CN1CCN(c2ccc(-c3cnc4[nH]cc(-c5ccc6ncn(C(C)(C)C)c6c5)c4n3)cc2)CC1 [P-341, 7-(3-tert-butylbenzimidazol-5-yl)-2-[4-(4-methylpiperazin-1-yl)phenyl]-5H-pyrrolo[2,3-b]pyrazine]
Cc1cc(C#Cc2cnc3[nH]cc(-c4ccc5ncn(C6CCCNC6)c5c4)c3n2)cc(C)n1 (stereo not drawn) [P-283, 2-[2-(2,6-dimethyl-4-pyridyl)ethynyl]-7-[3-(3-piperidyl)benzimidazol-5-yl]-5H-pyrrolo[2,3-b]pyrazine]
Cc1ccc(-c2cnc3[nH]cc(-c4ccc5ncn(C(C)(C)C)c5c4)c3n2)cn1 [P-388, 7-(3-tert-butylbenzimidazol-5-yl)-2-(6-methyl-3-pyridyl)-5H-pyrrolo[2,3-b]pyrazine]
CC(C)(C)n1cnc2ccc(-c3c[nH]c4nnc(Cl)cc34)cc21 [P-314, 5-(3-tert-butylbenzimidazol-5-yl)-3-chloro-7H-pyrrolo[2,3-c]pyridazine]
CC(C)(C)n1cnc2ccc(-c3c[nH]c4ncc(-c5ccnc(C#N)c5)nc34)cc21 [P-301, 4-[7-(3-tert-butylbenzimidazol-5-yl)-5H-pyrrolo[2,3-b]pyrazin-2-yl]pyridine-2-carbonitrile]
CCN1CCN(c2cc(-c3cnc4[nH]cc(-c5ccc6ncn(C(C)(C)C)c6c5)c4n3)ccn2)CC1 [P-328, 7-(3-tert-butylbenzimidazol-5-yl)-2-[2-(4-ethylpiperazin-1-yl)-4-pyridyl]-5H-pyrrolo[2,3-b]pyrazine]
CC(C)(C)n1cnc2ccc(-c3c[nH]c4ncc(-c5cnc(O)nc5)nc34)cc21 [P-363, 5-[7-(3-tert-butylbenzimidazol-5-yl)-5H-pyrrolo[2,3-b]pyrazin-2-yl]pyrimidin-2-ol]
Cc1ncc(C#Cc2cnc3[nH]cc(-c4ccc5ncn(C(C)(C)C)c5c4)c3n2)cn1 [P-284, 7-(3-tert-butylbenzimidazol-5-yl)-2-[2-(2-methylpyrimidin-5-yl)ethynyl]-5H-pyrrolo[2,3-b]pyrazine]
CC(C)(C)n1cnc2ccc(-c3c[nH]c4ncc(-c5ccc(C#N)nc5)cc34)cc21 [P-290, 5-[3-(3-tert-butylbenzimidazol-5-yl)-1H-pyrrolo[2,3-b]pyridin-5-yl]pyridine-2-carbonitrile]
CC(C)(C)n1cnc2ccc(-c3c[nH]c4ncc(-c5cccc(N6CCOCC6)c5)cc34)cc21 [P-316, 4-[3-[3-(3-tert-butylbenzimidazol-5-yl)-1H-pyrrolo[2,3-b]pyridin-5-yl]phenyl]morpholine]
CC(C)(C)n1cnc2ccc(-c3c[nH]c4ncc(-c5cnc(N6CCC(F)(F)CC6)nc5)nc34)cc21 [P-357, 7-(3-tert-butylbenzimidazol-5-yl)-2-[2-(4,4-difluoro-1-piperidyl)pyrimidin-5-yl]-5H-pyrrolo[2,3-b]pyrazine]
c1cc(-c2cnc3[nH]cc(-c4ccc5ncn(C6CCCNC6)c5c4)c3n2)cc(N2CCCCC2)n1 (stereo not drawn) [P-339, 7-[3-(3-piperidyl)benzimidazol-5-yl]-2-[2-(1-piperidyl)-4-pyridyl]-5H-pyrrolo[2,3-b]pyrazine]
c1cc(N2CCCCC2)ccc1-c1cnc2[nH]cc(-c3ccc4ncn(C5CCCNC5)c4c3)c2n1 (stereo not drawn) [P-346, 7-[3-(3-piperidyl)benzimidazol-5-yl]-2-[4-(1-piperidyl)phenyl]-5H-pyrrolo[2,3-b]pyrazine]
COc1cc(-c2cnc3[nH]cc(-c4ccc5ncn(C6(C(F)(F)F)CC6)c5c4)c3n2)ccn1 [P-312, 2-(2-methoxy-4-pyridyl)-7-[3-[1-(trifluoromethyl)cyclopropyl]benzimidazol-5-yl]-5H-pyrrolo[2,3-b]pyrazine]
COc1ncc(-c2cnc3[nH]cc(-c4ccc5ncn(C(C)(C)C)c5c4)c3n2)cc1C#N [P-405, 5-[7-(3-tert-butylbenzimidazol-5-yl)-5H-pyrrolo[2,3-b]pyrazin-2-yl]-2-methoxy-pyridine-3-carbonitrile]
CC(C)(C)n1cnc2ccc(-c3c[nH]c4ncc(-c5cccc(N6CCCS6(=O)=O)c5)cc34)cc21 [P-278, 2-[3-[3-(3-tert-butylbenzimidazol-5-yl)-1H-pyrrolo[2,3-b]pyridin-5-yl]phenyl]-1,2-thiazolidine 1,1-dioxide]
FC(F)(F)Cn1cc(-c2cnc3[nH]cc(-c4ccc5ncn(C6CCCNC6)c5c4)c3c2)cn1 (stereo not drawn) [P-275, 1-(3-piperidyl)-6-[5-[1-(2,2,2-trifluoroethyl)pyrazol-4-yl]-1H-pyrrolo[2,3-b]pyridin-3-yl]benzimidazole]
CCN1CCN(c2ccc(-c3cnc4[nH]cc(-c5ccc6ncn(C7CCCNC7)c6c5)c4n3)cc2)CC1 (stereo not drawn) [P-359, 2-[4-(4-ethylpiperazin-1-yl)phenyl]-7-[3-(3-piperidyl)benzimidazol-5-yl]-5H-pyrrolo[2,3-b]pyrazine]
CN1CCN(c2cccc(-c3cnc4[nH]cc(-c5ccc6ncn(C(C)(C)C)c6c5)c4n3)c2)CC1 [P-331, 7-(3-tert-butylbenzimidazol-5-yl)-2-[3-(4-methylpiperazin-1-yl)phenyl]-5H-pyrrolo[2,3-b]pyrazine]
O=S1(=O)CCCCN1c1cc(-c2cnc3[nH]cc(-c4ccc5ncn(C6CCCNC6)c5c4)c3n2)ccn1 (stereo not drawn) [P-310, 2-[4-[7-[3-(3-piperidyl)benzimidazol-5-yl]-5H-pyrrolo[2,3-b]pyrazin-2-yl]-2-pyridyl]thiazinane 1,1-dioxide]
CCN1CCN(c2ccc(-c3cnc4[nH]cc(-c5ccc6ncn(C(C)(C)C)c6c5)c4n3)cn2)CC1 [P-365, 7-(3-tert-butylbenzimidazol-5-yl)-2-[6-(4-ethylpiperazin-1-yl)-3-pyridyl]-5H-pyrrolo[2,3-b]pyrazine]
FC(F)n1cc(-c2cnc3[nH]cc(-c4ccc5ncn(C6CCCNC6)c5c4)c3c2)cn1 (stereo not drawn) [P-274, 5-[1-(difluoromethyl)pyrazol-4-yl]-3-[3-(3-piperidyl)benzimidazol-5-yl]-1H-pyrrolo[2,3-b]pyridine]
CCN1CCN(c2ccc(-c3cnc4[nH]cc(-c5ccc6ncn(C7CCCNC7)c6c5)c4n3)cn2)CC1 (stereo not drawn) [P-366, 2-[6-(4-ethylpiperazin-1-yl)-3-pyridyl]-7-[3-(3-piperidyl)benzimidazol-5-yl]-5H-pyrrolo[2,3-b]pyrazine]
CC(C)(C)n1cnc2ccc(-c3c[nH]c4ncc(-c5ccc(N6CCCCC6)nc5)nc34)cc21 [P-347, 7-(1-(tert-butyl)-1H-benzo[d]imidazol-6-yl)-2-(6-(piperidin-1-yl)pyridin-3-yl)-5H-pyrrolo[2,3-b]pyrazine]
COc1cc(-c2cnc3[nH]cc(-c4ccc5ncn(C(C)(C)C)c5c4)c3c2)c(OC)nn1 [P-292, 1-tert-butyl-6-[5-(3,6-dimethoxypyridazin-4-yl)-1H-pyrrolo[2,3-b]pyridin-3-yl]benzimidazole]
c1cc(N2CCCCC2)ncc1-c1cnc2[nH]cc(-c3ccc4ncn(C5CCCNC5)c4c3)c2n1 (stereo not drawn) [P-348, 7-[3-(3-piperidyl)benzimidazol-5-yl]-2-[6-(1-piperidyl)-3-pyridyl]-5H-pyrrolo[2,3-b]pyrazine]
O=S1(=O)CCCN1c1cc(-c2cnc3[nH]cc(-c4ccc5ncn(C6CCCNC6)c5c4)c3n2)ccn1 (stereo not drawn) [P-295, 2-[4-[7-[3-(3-piperidyl)benzimidazol-5-yl]-5H-pyrrolo[2,3-b]pyrazin-2-yl]-2-pyridyl]-1,2-thiazolidine 1,1-dioxide]
CC(C)(C)n1cnc2ccc(-c3c[nH]c4ncc(-c5ccc(N6CCOCC6)nc5)nc34)cc21 [P-326, 4-[5-[7-(3-tert-butylbenzimidazol-5-yl)-5H-pyrrolo[2,3-b]pyrazin-2-yl]-2-pyridyl]morpholine]
c1cc(-c2cnc3[nH]cc(-c4ccc5ncn(C6CCCNC6)c5c4)c3n2)cc(N2CCCCC2)c1 (stereo not drawn) [P-337, 7-[3-(3-piperidyl)benzimidazol-5-yl]-2-[3-(1-piperidyl)phenyl]-5H-pyrrolo[2,3-b]pyrazine]
